Source: patent US8093229B2, “Alkynyl pyrrolo[2,3-d]pyrimidines and related analogs as HSP90-inhibitors” (Conforma Therapeutics Corporation, priority 2005, dated 2012)
pIC50: −log10 of the molar value. Values belong to the compound of their own block, whether it stands above or below them.

Columns and labels:
Assay type in all cases: cell-based
[1] = system: MCF7 breast carcinoma cells; assay: MTS assay / secondary assay of killing tumor cells, MCF7; conditions: for pIC50: Homo sapiens, MCF7
Protocol: (§1) The difference in potency index between alkynes and non-alkynes measured by a secondary assay is also striking. The secondary assay measures the efficiency of killing tumor cells. […] EC50 is defined as the amount of compound added to effect a 50% reduction in viable cell number. Selected compounds were tested on cells of MCF7 and BT474 breast tumor cell lines. […] TABLE 2 summarized the result of the assay.
(§2) 3-(4,5-dimethylthiazol-2-yl)-5-(3-carboxymethoxyphenyl)-2-(4-sulfophenyl)-2H-tetrazolium assays measure the cytotoxicity of geldanamycin derivatives. MTS (3-(4,5-dimethylthiazol-2-yl) -5-(3-carboxymethoxyphenyl)-2-(4-sulfophenyl)-2H-tetrazolium) is a tetrazolium dye that is converted to a formazan product by dehydrogenase enzymes of metabolically active cells (Corey, A. et al. “Use of an aqueous soluble tetrazolium/formazan assay for cell growth assays in culture,” Cancer Commun. 1991, 3, 207-212). Cells were seeded in 96 well plates at 2000 cells/well and allowed to adhere overnight in Dulbecco's modified Eagle's medium supplemented with 10% fetal bovine serum. The final culture volume was 100 μl. Viable cell number was determined by using the Celltiter 96 AQueous Non-radioactive Cell Proliferation Assay (Promega, Madison Wis.). The MTS/PMS (phenazine methosulfate) solution was mixed at a ratio of 20:1, and 20 μL was added per well to 100 μl of culture medium. After 2-4 hours, the formation of the formazan product was measured at 490 nm absorbance using a multiwell plate spectrophotometer. Background was determined by measuring the Abs 490 nm of cell culture medium and MTS-PMS in the absence of cells and was subtracted from all values. Percent viable cells was calculated as follows: % viable cells=(Abs at 490 nm treated cells/Abs at 490 nm untreated cells)×100
The effect of selected compounds of the invention on MCF7 breast carcinoma cells according to the MTS assay is summarized in table 3. IC50 was defined as the concentration of the compound which gave rise to 50% reduction in viable cell number.

[2] = system: BT474 breast tumor cell line; assay: MTS assay / secondary assay of killing tumor cells, BT474; conditions: Homo sapiens, BT-474
Protocol: as §1, §2

[3] = system: HER2/Neu protein; assay: Her2 degradation assay; conditions: MCF7 cells, 16 h
From the text: [drawing 219] wherein R^3′ is not alkynyl, which were disclosed in U.S. patent application Ser. No. 10/945,851 and PCT Application US04/31248. The pyrrolopyrimidine compounds specified in the EXAMPLE sections of the above patent applications carry either no substituent or a substituted alkyl group. […] A simple alkyl or a substituted alkyl at C-5 (ie R^3=alkyl or substituted alkyl) can only bring two-fold additional activity. Conversely, if C-5 is alkyne substituted, the potency increases approximately 10-20 fold. (See, Series A: compounds A, B, C and D below).
Many cancers are associated with the over expression Her2 protein. It has been shown that compounds able to diminish Her2 levels show good promise as anti-cancer agents.
MCF7 breast carcinoma cells (ATCC) were grown in Dulbecco's modified Eagle's medium (DMEM) containing 10% fetal bovine serum (FBS) and 10 mM HEPES, and plated in 24 well plates (50% confluent). […] Samples were analyzed using a FACSCalibur™ flow cytometer (Becton Dickinson, San Jose, Calif.) equipped with Argon-ion laser that emits 15 mW of 488 nm light for excitation of the PE fluorochrome. […] A fluorescence histogram was generated and the mean fluorescence intensity (MFI) of each sample was determined using Cellquest software. […] Percent degradation of Her2 was calculated as follows: % Her2 degraded=[(MFI untreated cells−MFI treated cells)/MFI untreated cell]×100. […]

SMILES: COc1c(C)cnc(Cn2cc(C#CCCCNC(C)(C)C)c3c(Cl)nc(N)nc32)c1C [Example 21, 5-(5-tert-Butylamino-pent-1-ynyl)-4-chloro-7-(4-methoxy-3,5-dimethyl-pyridin-2-ylmethyl) -7H-pyrrolo[2,3-d]pyrimidin-2-ylamine]
pIC50 [1]: 6.64
pIC50 [2]: 7.52

SMILES: COc1c(C)cnc(Cn2cc(C#CCCCN3CCOCC3)c3c(Cl)nc(N)nc32)c1C [Example 19]
pIC50 [1]: 7.00
pIC50 [2]: 6.00

SMILES: COc1c(C)cnc(Cn2cc(C#CCCO)c3c(Cl)nc(N)nc32)c1C [Example 2, 4-[2-Amino-4-chloro-7-(4-methoxy-3,5-dimethyl-pyridin-2-ylmethyl)-7H-pyrrolo[2,3-d]pyrimidin-5-yl]-but-3-yn-1-ol]
pIC50 [1]: 7.89
pIC50 [2]: 8.22

SMILES: COc1c(C)cnc(Cn2cc(C#CCCC(N)=O)c3c(Cl)nc(N)nc32)c1C [Example 12, 5-[2-Amino-4-chloro-7-(4-methoxy-3,5-dimethyl-pyridin-2-ylmethyl)-7H-pyrrolo[2,3-d]pyrimidin-5-yl]-pent-4-ynoic acid amide]
pIC50 [1]: 7.52
pIC50 [2]: 7.70

SMILES: COc1c(C)cnc(Cn2cc(C#CCCCCO)c3c(Cl)nc(N)nc32)c1C [Example 7, 6-[2-Amino-4-chloro-7-(4-methoxy-3,5-dimethyl-pyridin-2-ylmethyl)-7H-pyrrolo[2,3-d]pyrimidin-5-yl]-hex-5-yn-1-ol]
pIC50 [1]: 6.70
pIC50 [2]: 7.70

SMILES: CCN(CC)C(=O)CCC#Cc1cn(Cc2ncc(C)c(OC)c2C)c2nc(N)nc(Cl)c12 [Example 10]
pIC50 [1]: 6.15
pIC50 [2]: 7.30

SMILES: COc1c(C)cnc(Cn2cc(C#CCCCN3C(=O)c4ccccc4C3=O)c3c(Cl)nc(N)nc32)c1C [Example 17]
pIC50 [1]: 8.00
pIC50 [2]: 7.00

SMILES: COc1c(C)cnc(Cn2cc(C#CCCCO)c3c(Cl)nc(N)nc32)c1C [Example 3, 5-[2-Amino-4-chloro-7-(4-methoxy-3,5-dimethyl-pyridin-2-ylmethyl)-7H-pyrrolo[2,3-d]pyrimidin-5-yl]-pent-4-yn-1-ol]
pIC50 [1]: 7.89
pIC50 [2]: 8.10

pIC50 [3]: 7.92
SMILES: COc1c(C)cnc(Cn2cc(C#CCO)c3c(Cl)nc(N)nc32)c1C [Example 1, 3-[2-amino-4-chloro-7-(4-methoxy-3,5-dimethyl-pyridin-2-ylmethyl)-7H-pyrrolo [2,3-d]pyrimidin-5-yl]-prop-2-yn-1-ol]
pIC50 [1]: 6.89
pIC50 [2]: 7.70

SMILES: COc1c(C)cnc(Cn2cc(C#CCCNC(C)(C)C)c3c(Cl)nc(N)nc32)c1C [Example 20, 5-(4-tert-Butylamino-but-1-ynyl)-4-chloro-7-(4-methoxy-3,5-dimethyl-pyridin-2-ylmethyl) -7H-pyrrolo[2,3-d]pyrimidin-2-ylamine]
pIC50 [1]: 6.89
pIC50 [2]: 7.64

SMILES: COc1c(C)cnc(Cn2cc(C#CCCN3C(=O)c4ccccc4C3=O)c3c(Cl)nc(N)nc32)c1C [H]
potency index relative to 17-AAG ([1]; cell line not specified, MCF7 and BT474 tested): more potent than 17-AAG

SMILES: COc1c(C)cnc(Cn2cc(C#CCCCN)c3c(Cl)nc(N)nc32)c1C [Example 16, 5-(5-Amino-pent-1-ynyl)-4-chloro-7-(4-methoxy-3,5-dimethyl-pyridin-2-ylmethyl)-7H-pyrrolo [2,3-d]pyrimidin-2-ylamine]
pIC50 [1]: 7.05
pIC50 [2]: < 5.00

SMILES: COc1c(C)cnc(Cn2cc(C#CCCCNC(=O)OC(C)(C)C)c3c(Cl)nc(N)nc32)c1C [Example 15, {5-[2-Amino-4-chloro-7-(4-methoxy-3,5-dimethyl-pyridin-2-ylmethyl)-7H-pyrrolo [2,3-d]pyrimidin-5-yl]-pent-4-ynyl}-carbamic acid tert-butyl ester]
pIC50 [1]: 7.22
pIC50 [2]: 6.00

SMILES: COc1c(C)cnc(Cn2cc(C#CCOC(=O)CN(C)C)c3c(Cl)nc(N)nc32)c1C [Example 22, Dimethylamino-acetic acid 3-[2-amino-4-chloro-7-(4-methoxy-3,5-dimethyl-pyridin-2-ylmethyl)-7H-pyrrolo[2,3-d]pyrimidin-5-yl]-prop-2-ynyl ester]
pIC50 [1]: 6.70
pIC50 [2]: 7.70

SMILES: COc1c(C)cnc(Cn2cc(C#CCCN3CCOCC3)c3c(Cl)nc(N)nc32)c1C [Example 18]
pIC50 [1]: 7.30
pIC50 [2]: 6.00

SMILES: COc1c(C)cnc(Cn2cc(C#CCCC(=O)N3CCN(C)CC3)c3c(Cl)nc(N)nc32)c1C [Example 11]
pIC50 [1]: 7.00
pIC50 [2]: 7.70

pIC50 [3]: 7.26
SMILES: COc1c(C)cnc(Cn2cc(C#CCN(C(C)C)C(C)C)c3c(Cl)nc(N)nc32)c1C [Example 5, 4-Chloro-5-(3-diisopropylamino-prop-1-ynyl)-7-(4-methoxy-3,5-dimethyl-pyridin-2-ylmethyl)-7H-pyrrolo[2,3-d]pyrimidin-2-ylamine]
pIC50 [1]: 7.00
pIC50 [2]: 7.10
